US20190166840A1, “SUBSTITUTED PYRAZOLINYL DERIVATIVES, PROCESSES FOR THEIR PREPARATION AND THEIR USE AS HERBICIDES AND/OR PLANT GROWTH REGULATORS” (BAYER CROPSCIENCE AKTIENGESELLSCHAFT, priority 2016, published 2019)

Key:
Assay type in all cases: in vivo
Conditions in all cases: application rate 1280 g/ha, scored visually after about 3 weeks
[1] = tested on: Hordeum murinum; test: Pre-emergence herbicidal action, HORMU
Source text: (§1) Pre-Emergence Herbicidal Action Seeds of mono- and dicotyledonous weed plants or crop plants were placed in sandy loam in wood fibre pots and covered with soil. The formulated compounds of the general formula (I) according to the invention were then applied to the surface of the covering soil in the form of an aqueous suspension or emulsion at an application rate of 600 l of water/ha (converted) with addition of 0.2% wetting agent. After the treatment, the pots were placed in a greenhouse and kept under good growth conditions for the test plants. After about 3 weeks, the effect was scored visually in percent in comparison to untreated controls. For example, 100% activity=the plants have died, 50% herbicidal activity or damage=plants reduced to 50% or plant material reduced by 50%, 0% activity=like control plants. Here, in the biological tests, the compounds of the general formula (I) according to the invention were in each case employed in a formulation, with the numerations of Tables I.1 to I.77 also applying here. Here, the herbicidal action of the compounds of the general formula (I) according to the invention was examined for the following harmful plants: HORMU=Hordeum murinum The respective herbicidal action was in each case determined at the same point in time after application of the formulation in question, i.e. damage of the harmful plant in question in %. Pre-emergence herbicidal action of the compounds of the general formula (I) according to the invention: […]

[2] = tested on: Viola tricolor; test: Pre-emergence herbicidal action, VIOTR
Source text: as §1, with “VIOTR=Viola tricolor” for “HORMU=Hordeum murinum”

[3] = tested on: Polygonum convolvulus (=Fallopia convolvulus); test: Pre-emergence herbicidal action, POLCO
Source text: as §1, with “POLCO=Polygonum convolvulus (=Fallopia convolvulus)” for “HORMU=Hordeum murinum”

[4] = tested on: Stellaria media; test: Pre-emergence herbicidal action, STEME
Source text: as §1, with “STEME=Stellaria media” for “HORMU=Hordeum murinum”

[5] = tested on: Abutilon theophrasti; test: Pre-emergence herbicidal action, ABUTH
Source text: as §1, with “ABUTH=Abutilon theophrasti” for “HORMU=Hordeum murinum”

Row | Structure (SMILES) | Pre-emergence herbicidal action HORMU, damage of the harmful plant [1] | Pre-emergence herbicidal action VIOTR, damage of the harmful plant [2] | Pre-emergence herbicidal action POLCO, damage of the harmful plant [3] | Pre-emergence herbicidal action STEME, damage of the harmful plant [4] | Pre-emergence herbicidal action ABUTH, damage of the harmful plant [5]
1 | CC1=C(C)C(O)N(C2=NN(c3ccccn3)C(C)(C)C2)C1=O (stereo not drawn) [I.2-132] | 0% | 80% | 40% | 100% | 70%
2 | CC1=C(C)C(O)N(C2=NN(c3ccccc3)C(C(F)(F)F)C2)C1=O (stereo not drawn) [I.2-1413] | 60% | 100% | 100% | 100% | 0%
3 | CCC(=O)OC1C(C)=C(C)C(=O)N1C1=NN(c2ccccn2)C(C)(C)C1 (stereo not drawn) [I.23-132] | 20% | 70% | 0% | 100% | 0%
4 | CCC(=O)OC1C(C)=C(C)C(=O)N1C1=NN(c2ccccc2)CC1 (stereo not drawn) [I.23-621] | 0% | 70% | 100% | 0% | 0%
5 | CCC(=O)OC1C(C)=C(C)C(=O)N1C1=NN(c2ccccc2)C(C(F)(F)F)C1 (stereo not drawn) [I.23-1413] | 30% | 100% | 80% | 80% | 0%
6 | CCC(=O)OC1C(C)=C(Cl)C(=O)N1C1=NN(C)C(c2ccccc2)C1 (stereo not drawn) [I.24-1126] | 20% | 10% | 0% | 20% | 0%
